Laboratory results: PubChem BioAssay (NCI)
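GI50 = concentration required for 50% inhibition of growth. TGI denotes the concentration required for complete inhibition of growth.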

Key:
Test in all cases: DTP human tumour cell line panel, 384-well format
786-0 renal = system: 786-0 renal
A498 renal = system: A498 renal
A549 NSCLC = system: A549 NSCLC
ACHN renal = system: ACHN renal
BT-549 breast = system: BT-549 breast
CAKI-1 renal = system: CAKI-1 renal
CCRF-CEM leukemia = system: CCRF-CEM leukemia
COLO 205 colon = system: COLO 205 colon
DU-145 prostate = system: DU-145 prostate
EKVX NSCLC = system: EKVX NSCLC
HCC-2998 colon = system: HCC-2998 colon
HCT-15 colon = system: HCT-15 colon
HL-60(TB) leukemia = system: HL-60(TB) leukemia
HOP-62 NSCLC = system: HOP-62 NSCLC
HOP-92 NSCLC = system: HOP-92 NSCLC
HS 578T breast = system: HS 578T breast
HT29 colon = system: HT29 colon
IGROV1 ovarian = system: IGROV1 ovarian
K-562 leukemia = system: K-562 leukemia
KM12 colon = system: KM12 colon
LOX IMVI melanoma = system: LOX IMVI melanoma
M14 melanoma = system: M14 melanoma
MALME-3M melanoma = system: MALME-3M melanoma
MCF7 breast = system: MCF7 breast
MDA-MB-231 breast = system: MDA-MB-231 breast
MDA-MB-435 melanoma = system: MDA-MB-435 melanoma
MDA-MB-468 breast = system: MDA-MB-468 breast
MOLT-4 leukemia = system: MOLT-4 leukemia
NCI-H226 lung = system: NCI-H226 lung
NCI-H23 lung = system: NCI-H23 lung
NCI-H322M lung = system: NCI-H322M lung
NCI-H460 NSCLC = system: NCI-H460 NSCLC
NCI-H522 lung = system: NCI-H522 lung
NCI/ADR-RES ovarian = system: NCI/ADR-RES ovarian
OVCAR-3 ovarian = system: OVCAR-3 ovarian
OVCAR-4 ovarian = system: OVCAR-4 ovarian
OVCAR-5 ovarian = system: OVCAR-5 ovarian
OVCAR-8 ovarian = system: OVCAR-8 ovarian
PC-3 prostate = system: PC-3 prostate
RPMI-8226 leukemia = system: RPMI-8226 leukemia
RXF 393 renal = system: RXF 393 renal
SF-268 CNS = system: SF-268 CNS
SF-295 CNS = system: SF-295 CNS
SF-539 CNS = system: SF-539 CNS
SK-MEL-28 melanoma = system: SK-MEL-28 melanoma
SK-MEL-5 melanoma = system: SK-MEL-5 melanoma
SK-OV-3 ovarian = system: SK-OV-3 ovarian
SN12C renal = system: SN12C renal
SNB-19 CNS = system: SNB-19 CNS
SNB-75 CNS = system: SNB-75 CNS
SR leukemia = system: SR leukemia
SW-620 colon = system: SW-620 colon
T-47D breast = system: T-47D breast
TK-10 renal = system: TK-10 renal
UACC-257 melanoma = system: UACC-257 melanoma
UACC-62 melanoma = system: UACC-62 melanoma
UO-31 renal = system: UO-31 renal

Compound: C=CC(=O)N1CCC(c2ccc(C(N)=O)c(-c3ccc(Oc4ccccc4)cc3)n2)CC1
- GI50 ([…]-0 renal): 29.2 µM
- TGI (786-0 renal): > 100 µM
- GI50 (A498 renal): 21.3 µM
- TGI (A498 renal): 69.9 µM
- GI50 (A549 NSCLC): 34.8 µM
- TGI (A549 NSCLC): > 100 µM
- GI50 (ACHN renal): 32.4 µM
- TGI (ACHN renal): > 100 µM
- GI50 (BT-549 breast): 17.9 µM
- TGI (BT-549 breast): 41.8 µM
- GI50 (CAKI-1 renal): 23.5 µM
- TGI (CAKI-1 renal): > 100 µM
- GI50 (CCRF-CEM leukemia): 17.4 µM
- TGI (CCRF-CEM leukemia): 34.2 µM
- GI50 (COLO 205 colon): 89.8 µM
- TGI (COLO 205 colon): > 100 µM
- GI50 (DU-145 prostate): 24.7 µM
- TGI (DU-145 prostate): 79.9 µM
- GI50 (EKVX NSCLC): 22.6 µM
- TGI (EKVX NSCLC): 84.1 µM
- GI50 (HCC-2998 colon): 29.5 µM
- TGI (HCC-2998 colon): 90.3 µM
- GI50 (HCT-15 colon): 30.6 µM
- TGI (HCT-15 colon): > 100 µM
- GI50 (HL-60(TB) leukemia): 15 µM
- TGI (HL-60(TB) leukemia): 28.3 µM
- GI50 (HOP-62 NSCLC): 25.4 µM
- TGI (HOP-62 NSCLC): 83.7 µM
- GI50 (HOP-92 NSCLC): 20 µM
- TGI (HOP-92 NSCLC): 91 µM
- GI50 (HS 578T breast): 21.1 µM
- TGI (HS 578T breast): 58.9 µM
- GI50 (HT29 colon): 59.6 µM
- TGI (HT29 colon): > 100 µM
- GI50 (IGROV1 ovarian): 21.3 µM
- TGI (IGROV1 ovarian): 56 µM
- GI50 (K-562 leukemia): 28.8 µM
- TGI (K-562 leukemia): > 100 µM
- GI50 (KM12 colon): 37.3 µM
- TGI (KM12 colon): > 100 µM
- GI50 (LOX IMVI melanoma): 25.1 µM
- TGI (LOX IMVI melanoma): 62.9 µM
- GI50 (M14 melanoma): 33.9 µM
- TGI (M14 melanoma): > 100 µM
- GI50 (MALME-3M melanoma): 29.7 µM
- TGI (MALME-3M melanoma): 83.4 µM
- GI50 (MCF7 breast): 28.6 µM
- TGI (MCF7 breast): > 100 µM
- GI50 (MDA-MB-231 breast): 30.8 µM
- TGI (MDA-MB-231 breast): > 100 µM
- GI50 (MDA-MB-435 melanoma): 38.7 µM
- TGI (MDA-MB-435 melanoma): > 100 µM
- GI50 (MDA-MB-468 breast): 3.99 µM
- TGI (MDA-MB-468 breast): 10.2 µM
- GI50 (MOLT-4 leukemia): 12.7 µM
- TGI (MOLT-4 leukemia): 25.7 µM
- GI50 (NCI-H226 lung): 22.7 µM
- TGI (NCI-H226 lung): 72.4 µM
- GI50 (NCI-H23 lung): 28.3 µM
- TGI (NCI-H23 lung): > 100 µM
- GI50 (NCI-H322M lung): 25.3 µM
- TGI (NCI-H322M lung): > 100 µM
- GI50 (NCI-H460 NSCLC): 27.4 µM
- TGI (NCI-H460 NSCLC): 71.5 µM
- GI50 (NCI-H522 lung): 12.2 µM
- TGI (NCI-H522 lung): 30.7 µM
- GI50 (NCI/ADR-RES ovarian): 16.6 µM
- TGI (NCI/ADR-RES ovarian): 37.2 µM
- GI50 (OVCAR-3 ovarian): 27.1 µM
- TGI (OVCAR-3 ovarian): 66.5 µM
- GI50 (OVCAR-4 ovarian): 25.7 µM
- TGI (OVCAR-4 ovarian): 69.7 µM
- GI50 (OVCAR-5 ovarian): > 100 µM
- TGI (OVCAR-5 ovarian): > 100 µM
- GI50 (OVCAR-8 ovarian): 23.8 µM
- TGI (OVCAR-8 ovarian): 66.1 µM
- GI50 (PC-3 prostate): 41.2 µM
- TGI (PC-3 prostate): > 100 µM
- GI50 (RPMI-8226 leukemia): 15.1 µM
- TGI (RPMI-8226 leukemia): 29.3 µM
- GI50 (RXF 393 renal): 24.9 µM
- TGI (RXF 393 renal): 73.5 µM
- GI50 (SF-268 CNS): 35.3 µM
- TGI (SF-268 CNS): > 100 µM
- GI50 (SF-295 CNS): 41.1 µM
- TGI (SF-295 CNS): > 100 µM
- GI50 (SF-539 CNS): 27 µM
- TGI (SF-539 CNS): 78.5 µM
- GI50 (SK-MEL-28 melanoma): 95.1 µM
- TGI (SK-MEL-28 melanoma): > 100 µM
- GI50 (SK-MEL-5 melanoma): 18 µM
- TGI (SK-MEL-5 melanoma): 35.8 µM
- GI50 (SK-OV-3 ovarian): 26.9 µM
- TGI (SK-OV-3 ovarian): > 100 µM
- GI50 (SN12C renal): 33.1 µM
- TGI (SN12C renal): > 100 µM
- GI50 (SNB-19 CNS): 39.7 µM
- TGI (SNB-19 CNS): > 100 µM
- GI50 (SNB-75 CNS): 37.6 µM
- TGI (SNB-75 CNS): > 100 µM
- GI50 (SR leukemia): 11.7 µM
- TGI (SR leukemia): 26.7 µM
- GI50 (SW-620 colon): 32.9 µM
- TGI (SW-620 colon): 84.9 µM
- GI50 (T-47D breast): 16.9 µM
- TGI (T-47D breast): 87.2 µM
- GI50 (TK-10 renal): 25.2 µM
- TGI (TK-10 renal): 81.4 µM
- GI50 (UACC-257 melanoma): 18.3 µM
- TGI (UACC-257 melanoma): 42.1 µM
- GI50 (UACC-62 melanoma): 40.4 µM
- TGI (UACC-62 melanoma): > 100 µM
- GI50 (UO-31 renal): 74.1 µM
- TGI (UO-31 renal): > 100 µM
